Data taken from patent publication US12173320B2, “Production of red blood cells and platelets from stem cells” (BOSTON MEDICAL CENTER CORPORATION, priority 2012, dated 2024).

Tested on: AhR (CYP1B1 target gene expression) in iPSCs
Test: Quantitative RT-PCR of AhR target gene CYP1B1 in iPSCs
Type: cell-based, human
Protocol: RNA was extracted using the RNeasy kit (Qiagen) according to the manufacturer's instructions and DNase treated using the DNA-free kit (Ambion AM1906). Reverse transcription into cDNA was performed using the High Capacity cDNA Reverse Transcription Kit (Applied Biosystems 4368814). Quantitative (real time) PCR amplification of cDNA was performed using Taqman probes for AHR (Hs00169233 ml), CYP1B1 (Hs002382916 sl), HBA (Hs00361191 gl), HBB (Hs00758889 sl), HBG (Hs01629437 sl), vWF (Hs00169795 ml), PF4 (Hs00427220 gl), NF-E2 (Hs00232351 ml) and CD62P (Hs00927900 ml) and run on the Applied Biosystems StepOne machine. […]
To characterize AhR expression and functionality in both undifferentiated iPSCs and directly differentiated MEPs, AhR protein levels were determined via Western blot in these populations. AhR receptor was robustly expressed in day 30 and day 60 MEPs (FIG. 4A). However, AhR protein was not detected by western blotting in iPSC populations, and we postulated that AhR was expressed at extremely low levels in iPSCs, i.e., below the level of detectability with the antibodies used for Western blots. To test this hypothesis, the ability of FICZ to induce a prototypic AhR-target gene, CYPIB1, in iPSCs or, as a positive control, MEPs was assessed by quantitative RT-PCR.

CYP1B1 expression: statistically significant increases
Compound: O=Cc1c2c(cc3c1=Nc1ccccc1-3)=Nc1ccccc1-2 [FICZ, 6-formylindolo[3,2-b]carbazole]
